We go through six molecules from US4795751A, “5-substituted-6,8-difluoroquinolines useful as antibacterial agents” (Dainippon Pharmaceutical Co., Ltd., priority 1985, dated 1989).

Usually LD50 stands for the dose expected to kill half of the subjects tested. Low values mean a more toxic substance, high ones a less toxic substance. One may read the ED50 as the dose at which the effect has come halfway, by size or by number of responders.

Data set [1] has as its system Ac. calcoaceticus P-6901. In words: In vitro antibacterial activity, twofold agar-dilution method. It counts as cell-based. The conditions noted are these: Acinetobacter calcoaceticus, P6901; Ac. calcoaceticus P-6901 (Gram -); Mueller-Hinton agar, 20 h, 37° C.; calculated for free base; read-out: minimum inhibitory concentration (MIC). As for the experimental part:
(§1) The numbers in the table show minimum inhibitory concentrations (MIC) (μg/ml), calculated for free base. The minimum inhibitory concentration was determined by the twofold agar-dilution method, which was recommended by Japan Society of Chemotherapy (Chemotherapy, 29(1), 76(1981)), using Muller-Hinton agar. One loopful of an overnight culture of test organisms in Mueller-Hinton broth was inoculated onto 10-ml drug-containing agar layers in petri dishes. Bacterial inocula contained approximately 10^6 colonyl-formingunits. Bacterial growth was observed after 20-hour incubation at 37° C. The MIC was defined as the lowest drug concentration which prevented visible bacterial growth.

Data set [2] relates to Al. faecalis P-7001. Described as above. It is filed as cell-based. The conditions noted are these: Alcaligenes faecalis, P7001; Al. faecalis P-7001 (Gram -); Mueller-Hinton agar, 20 h, 37° C.; calculated for free base; read-out: minimum inhibitory concentration (MIC). How it is done: as §1
For data set [3], the system named is B. subtilis PCI 219. The description is as above. It counts as cell-based. The conditions noted are these: Bacillus subtilis, PCI219; B. subtilis PCI 219 (Gram +); Mueller-Hinton agar, 20 h, 37° C.; calculated for free base; read-out: minimum inhibitory concentration (MIC). How it is done: as §1
The test system of data set [4] is E. coli P-51213. The data set is described as above. The conditions noted are these: Escherichia coli, P51213; E. coli P-51213 (Gram -); Mueller-Hinton agar, 20 h, 37° C.; calculated for free base; read-out: minimum inhibitory concentration (MIC). It counts as cell-based. As for the experimental part:
as §1

For data set [5], the system named is P. aeruginosa No. 12. The data set is described as above. It is filed as cell-based. The following applies: Pseudomonas aeruginosa; P. aeruginosa No. 12 (Gram -); Mueller-Hinton agar, 20 h, 37° C.; calculated for free base; read-out: minimum inhibitory concentration (MIC). As for the experimental part:
as §1

Data set [6] concerns S. aureus 209P JC-1. The data set is described as above. It is filed as cell-based. The conditions noted are these: Staphylococcus aureus; S. aureus 209P JC-1 (Gram +); Mueller-Hinton agar, 20 h, 37° C.; calculated for free base; read-out: minimum inhibitory concentration (MIC). As for the experimental part:
as §1

Data set [7] has as its system S. aureus No. 50774. The description is as above. It is filed as cell-based. The following applies: Staphylococcus aureus; S. aureus No. 50774 (Gram +); Mueller-Hinton agar, 20 h, 37° C.; calculated for free base; read-out: minimum inhibitory concentration (MIC). How it is done: as §1
The test system of data set [8] is S. aureus No. 80. The data set is described as above. It counts as cell-based. The following applies: Staphylococcus aureus; S. aureus No. 80 (Gram +); Mueller-Hinton agar, 20 h, 37° C.; calculated for free base; read-out: minimum inhibitory concentration (MIC). As for the experimental part:
as §1

Data set [9] concerns S. epidermidis No. 8. The description is as above. It counts as cell-based. The conditions noted are these: Staphylococcus epidermidis; S. epidermidis No. 8 (Gram +); Mueller-Hinton agar, 20 h, 37° C.; calculated for free base; read-out: minimum inhibitory concentration (MIC). How it is done:
as §1

For data set [10], the system named is M. bovis P-7101. In words: microbe, parasite or virus in culture. It counts as cell-based. The conditions noted are these: Mycobacterium tuberculosis variant bovis, P7101, 20 h, read-out: minimum inhibitory concentration (MIC).
A short description of data set [11]: Acute oral toxicity in mice. The conditions noted are these: mouse, in vivo, po. How it is done:
(§2) A solution containing each of compounds 1, 2 and 3 of this invention in various concentrations was orally given to male mice (ddY) at a dose of 0.1 ml per 10 g of body weight. The number of dead mice was counted after 7 days, and the value of median lethal dose (LD50, mg/kg) was calculated in accordance with the Behrens-Kaerber method.

Data set [12] concerns male mice (ddY). In words: Acute oral toxicity in mice. The conditions noted are these: conclusion in words from Table 5. As for the experimental part:
as §2

Data set [13] has as its system Streptococcus pyogenes A65. In words: In vivo efficacy against systemic infections in mice. Also noted: species or system Streptococcus pyogenes; male mice (ddY-S). The conditions noted are these: A65, 168 h, oral, intraperitoneal infection 3×10^7 cells, twice, immediately and 6 h after infection, 7 days, calculated for free base, read-out: median effective dose (ED50). How it is done:
(§3) Compounds were each dissolved in deionized water. Each of the solutions was orally administered to mice infected with each of the test organisms under the conditions shown hereinbelow, and the median effective dose (ED50) was calculated by probit analysis. The numerals in the table show ED50 (mg/kg) value, calculated for free base.
(§4) Mice: Male mice (ddY-S) weighing about 20 g
Streptococcus pyogenes A65
Intraperitoneal infection with 3×10^7 cells per mouse suspended in brain heart infusion broth.
(§5) Four times, immediately, 6, 24 and 30 hours after infection in case of Streptococcus pneumoniae 1 Neufeld. Twice, immediately and 6 hours after infection in case of other organisms.
(§6) For 14 days in case of Staphylococcus aureus 50774 and Streptocuccus pneumoniae 1 Neufeld. For 7 days in case of other organisms.

The test system of data set [14] is Pseudomonas aeruginosa 12. The description is as above. The following applies: Pseudomonas aeruginosa, 12, 168 h, oral, intraperitoneal infection about 5×10^3 cells, 4% mucin, twice, immediately and 6 h after infection, 7 days, calculated for free base, read-out: median effective dose (ED50). Also noted: species or system Pseudomonas aeruginosa; male mice (ddY-S). How it is done: as §3, §4
Pseudomonas aeruginosa 12
Intraperitoneal infection with about 5×10^3 cells per mouse suspended in tryptosoy broth with 4% mucin.
as §5, §6

SMILES strings stand for the structures. In brackets after ≈: the same amount, converted by molar mass.

As to `CC1CN(c2c(F)c(N)c3c(=O)c(C(=O)O)cn(C4CC4)c3c2F)CC(C)N1` (stereo not drawn) [Compound 2, 5-Amino-1-cyclopropyl-6,8-difluoro-7-(3,5-dimethyl-1-piperazinyl)-1,4-dihydro-4-oxoquinoline-3-carboxylic acid], the MIC in data set [1] was 0.0125 µg/mL (≈ 0.0319 µM); in [2], 0.2 µg/mL (≈ 0.51 µM); in data set [3], 0.05 µg/mL (≈ 0.127 µM); in data set [4], 0.05 µg/mL (≈ 0.127 µM); in data set [5] it was 0.2 µg/mL (≈ 0.51 µM); in [6], 0.05 µg/mL (≈ 0.127 µM). For the same molecule, the MIC in data set [7] is 0.025 µg/mL (≈ 0.0637 µM); in [8] it was 0.0125 µg/mL (≈ 0.0319 µM); in data set [9], 0.025 µg/mL (≈ 0.0637 µM); in [10], 0.39 µg/mL (≈ 0.994 µM). For the same molecule, the LD50 at 168 h in data set [11] is over 2000 mg/kg. In addition, in data set [12], the oral toxicity entry is recorded as “low oral toxicity”.

For `Nc1c(F)c(N2CCNCC2)c(F)c2c1c(=O)c(C(=O)O)cn2C1CC1` [Compound 3, 5-Amino-1-cyclopropyl-6,8-difluoro-7-(1-piperazinyl)-1,4-dihydro-4-oxoquinoline-3-carboxylic acid], the MIC is 0.05 µg/mL (≈ 0.137 µM) in data set [1]; 0.2 µg/mL (≈ 0.549 µM) in [2]; 0.1 µg/mL (≈ 0.274 µM) in data set [3]; 0.1 µg/mL (≈ 0.274 µM) in [4]; 0.2 µg/mL (≈ 0.549 µM) in data set [5]; 0.05 µg/mL (≈ 0.137 µM) in data set [6]. Also, the MIC in data set [7] was 0.05 µg/mL (≈ 0.137 µM); in data set [8], 0.05 µg/mL (≈ 0.137 µM); in data set [9], 0.05 µg/mL (≈ 0.137 µM); in data set [10], 0.39 µg/mL (≈ 1.07 µM). The 50% lethal dose (LD50) at 168 h in data set [11] is over 2000 mg/kg. In addition, in data set [12], the oral toxicity entry is “low oral toxicity”.

With `CN1CCN(c2c(F)c(N)c3c(=O)c(C(=O)O)cn(C4CC4)c3c2F)CC1` [Compound 4, 5-Amino-1-cyclopropyl-6,8-difluoro-7-(4-methyl-1-piperazinyl)-1,4-dihydro-4-oxoquinoline-3-carboxylic acid], the MIC in data set [1] is 0.025 µg/mL (≈ 0.0661 µM); in data set [2], 0.2 µg/mL (≈ 0.529 µM); in [3] it was 0.1 µg/mL (≈ 0.264 µM); in data set [4], 0.1 µg/mL (≈ 0.264 µM); in data set [5], 0.2 µg/mL (≈ 0.529 µM); in data set [6], 0.1 µg/mL (≈ 0.264 µM). The MIC is 0.05 µg/mL (≈ 0.132 µM) in data set [7], 0.025 µg/mL (≈ 0.0661 µM) in [8], 0.05 µg/mL (≈ 0.132 µM) in [9] and 0.39 µg/mL (≈ 1.03 µM) in data set [10].

For the molecule `CCN1CCN(c2c(F)c(N)c3c(=O)c(C(=O)O)cn(C4CC4)c3c2F)CC1` [Compound 5, 5-Amino-1-cyclopropyl-6,8-difluoro-7-(4-ethyl-1-piperazinyl)-1,4-dihydro-4-oxoquinoline-3-carboxylic acid], the MIC in [1] is 0.0125 µg/mL (≈ 0.0319 µM); in [2], 0.2 µg/mL (≈ 0.51 µM); in [3], 0.1 µg/mL (≈ 0.255 µM); in data set [4] it was 0.05 µg/mL (≈ 0.127 µM); in [5], 0.39 µg/mL (≈ 0.994 µM); in data set [6], 0.05 µg/mL (≈ 0.127 µM). Besides, the MIC is 0.025 µg/mL (≈ 0.0637 µM) in data set [7], 0.025 µg/mL (≈ 0.0637 µM) in data set [8], 0.05 µg/mL (≈ 0.127 µM) in data set [9] and 0.39 µg/mL (≈ 0.994 µM) in [10].

Take `Nc1c(F)c(N2CCNC(CF)C2)c(F)c2c1c(=O)c(C(=O)O)cn2C1CC1` (stereo not drawn) [Compound 6, 5-Amino-1-cyclopropyl-6,8-difluoro--7-(3-fluoromethyl-1-piperazinyl)-1,4-dihydro-4-oxoquinoline-3-carboxylic acid]: the MIC in [1] is 0.0063 µg/mL (≈ 0.0159 µM); in [2], 0.05 µg/mL (≈ 0.126 µM); in [3], 0.025 µg/mL (≈ 0.0631 µM); in [4], 0.05 µg/mL (≈ 0.126 µM); in data set [5], 0.2 µg/mL (≈ 0.505 µM); in data set [6], 0.025 µg/mL (≈ 0.0631 µM). Further, the MIC is 0.0125 µg/mL (≈ 0.0315 µM) in [7], 0.0063 µg/mL (≈ 0.0159 µM) in data set [8], 0.025 µg/mL (≈ 0.0631 µM) in data set [9] and 0.1 µg/mL (≈ 0.252 µM) in data set [10].

`CCn1cc(C(=O)O)c(=O)c2c(N)c(F)c(N3CCNCC3)c(F)c21` [Compound A, 5-amino-1-ethyl-6,8-difluoro-7-(1-piperazinyl)-1,4-dihydro-4-oxoquinoline-3-carboxylic acid, reference compound]: the MIC in [1] was 0.2 µg/mL (≈ 0.568 µM); in data set [2], 0.78 µg/mL (≈ 2.21 µM); in data set [3] it was 0.39 µg/mL (≈ 1.11 µM); in data set [4], 0.39 µg/mL (≈ 1.11 µM); in data set [5], 0.78 µg/mL (≈ 2.21 µM); in data set [6] it was 0.2 µg/mL (≈ 0.568 µM). For the same molecule, the MIC is 0.2 µg/mL (≈ 0.568 µM) in data set [7], 0.2 µg/mL (≈ 0.568 µM) in data set [8], 0.39 µg/mL (≈ 1.11 µM) in data set [9] and 3.13 µg/mL (≈ 8.88 µM) in data set [10]. For the same molecule, the 50% effective dose (ED50) is over 25 mg/kg in data set [13] and 15 mg/kg in [14].
